Test results reported in US20250171420A1 (Monte Rosa Therapeutics, Inc., priority 2022, published 2025).
Like-named read-outs stand apart in the source and are kept apart here.

Key:
CK1α = target: T1, CK1α (Homo sapiens, UniProt P48729); test: CK1α NanoBit Assay (HiBiT-tagged CSNK1A1, HEK293 clonal lines); type: cell-based; conditions: HEK293 HiBiT-CSNK1A1/LgBiT cells, 24 h incubation
T1 construct: HEK293 clonal lines with CRISPR KI HiBiT tag on CSNK1A1
Method in brief: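 HEK293 clones carrying a CRISPR knock-in HiBiT tag on CSNK1A1 and stably expressing LgBiT are treated with compound for 24 hours at 37° C, 5% CO2, then read by luminescence. Response is normalized as 100*(S−N)/(P−N) against plate negative and positive controls, and DC50 values are derived.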

CRBN/DDB1 = CRBN/DDB1 (Homo sapiens, UniProt Q96SW2); test: HTRF binding assay (displacement of Cy5-thalidomide probe from CRBN/DDB1); conditions: CRBN/DDB1 2.5 nM, Cy5-Thalidomide 100 nM, 30 min; geometric mean; read-out: HTRF_Thali_Disp_DR_geo_IC50
Sequence of CRBN/DDB1 (Q96SW2 whole entry, species assumed): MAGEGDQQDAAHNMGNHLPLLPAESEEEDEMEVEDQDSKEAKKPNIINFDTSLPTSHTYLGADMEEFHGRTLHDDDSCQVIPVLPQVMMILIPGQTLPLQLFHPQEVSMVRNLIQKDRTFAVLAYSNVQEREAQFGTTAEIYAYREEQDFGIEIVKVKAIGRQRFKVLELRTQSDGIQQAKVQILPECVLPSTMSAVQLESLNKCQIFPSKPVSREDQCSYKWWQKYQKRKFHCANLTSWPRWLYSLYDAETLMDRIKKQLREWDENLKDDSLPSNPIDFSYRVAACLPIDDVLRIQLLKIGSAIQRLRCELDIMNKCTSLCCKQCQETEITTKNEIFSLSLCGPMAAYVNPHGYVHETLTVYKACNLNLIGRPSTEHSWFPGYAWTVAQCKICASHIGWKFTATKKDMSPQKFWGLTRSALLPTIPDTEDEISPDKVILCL
Sequence of CRBN/DDB1 (Q16531 whole entry partner, species assumed): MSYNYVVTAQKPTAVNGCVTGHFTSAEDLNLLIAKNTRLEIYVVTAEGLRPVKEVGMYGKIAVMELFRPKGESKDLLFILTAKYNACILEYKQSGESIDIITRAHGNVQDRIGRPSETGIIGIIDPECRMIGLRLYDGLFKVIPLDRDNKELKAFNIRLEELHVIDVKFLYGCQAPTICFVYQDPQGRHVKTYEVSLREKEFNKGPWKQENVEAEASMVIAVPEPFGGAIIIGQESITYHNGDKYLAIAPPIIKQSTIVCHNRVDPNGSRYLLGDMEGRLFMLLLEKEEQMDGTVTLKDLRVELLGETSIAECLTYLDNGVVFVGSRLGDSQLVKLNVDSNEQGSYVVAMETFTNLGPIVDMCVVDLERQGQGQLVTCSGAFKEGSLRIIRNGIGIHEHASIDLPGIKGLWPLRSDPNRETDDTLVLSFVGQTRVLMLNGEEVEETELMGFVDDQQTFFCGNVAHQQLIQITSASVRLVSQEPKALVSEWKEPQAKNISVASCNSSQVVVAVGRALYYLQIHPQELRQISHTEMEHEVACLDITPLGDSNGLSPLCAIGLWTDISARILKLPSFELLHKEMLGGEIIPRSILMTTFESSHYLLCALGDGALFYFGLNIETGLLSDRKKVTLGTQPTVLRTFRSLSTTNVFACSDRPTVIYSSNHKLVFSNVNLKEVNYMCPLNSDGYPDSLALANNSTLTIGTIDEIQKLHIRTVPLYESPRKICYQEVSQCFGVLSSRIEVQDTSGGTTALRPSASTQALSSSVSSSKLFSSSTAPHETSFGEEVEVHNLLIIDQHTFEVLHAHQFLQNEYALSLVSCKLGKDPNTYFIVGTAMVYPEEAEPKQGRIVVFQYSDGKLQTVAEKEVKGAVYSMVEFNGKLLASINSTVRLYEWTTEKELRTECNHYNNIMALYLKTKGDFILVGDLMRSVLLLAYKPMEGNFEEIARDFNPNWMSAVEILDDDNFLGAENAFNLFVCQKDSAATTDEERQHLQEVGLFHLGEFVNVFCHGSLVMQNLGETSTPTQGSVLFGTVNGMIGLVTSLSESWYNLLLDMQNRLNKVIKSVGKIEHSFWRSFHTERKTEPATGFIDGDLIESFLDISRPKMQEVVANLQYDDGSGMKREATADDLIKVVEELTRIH
Method in brief: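 Compounds in a 10-point threefold dilution series were incubated 30 min at ambient temperature with 2.5 nM CRBN/DDB1, 100 nM Cy5-thalidomide probe and terbium anti-His donor (HEPES/NaCl/TCEP/EDTA/Tween20 buffer). IC50 came from 4-parameter fits of the 665/620 nm HTRF ratio; Ki used Cheng-Prusoff on geometric-mean IC50.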

SKCO1 cell line = test: Growth inhibition, CyQUANT Direct Cell Proliferation Assay, SKCO1; type: cell-based; conditions: Homo sapiens
Method: (§1) SKCO1, LS180, and LS174T cell lines were purchased from ATCC. CW2 cell line was purchased from Riken. GP2D cell line was purchased from Sigma/ECACC. All cell lines were cultured in manufacturer's recommended media at 37° C., 5% CO2. Briefly, cells were suspended in 200 μL of media and seeded at 300 to 1,800 cells per well in tissue culture treated 96-well plates with black walls and clear bottom. Plates were incubated overnight and initial (To) read was performed the following day using CyQUANT Direct Cell Proliferation Assay Kit (Thermo Fisher Scientific) according to manufacturer's protocol. All compounds were solubilized in DMSO and prepared at 3-fold serial dilution, using 9 points starting at 30 μM as highest concentration, administered to cells and incubated for 120 to 168 hours, at which point CyQUANT assay measurement was performed using Acumen Cellista instrument (Ex/Em 480/520 nm). Media-only wells were used as blank, and 0.3% DMSO was used as DMSO-treated cell control. Growth inhibition (percent response) was calculated using the following formula in Excel: “=if ([Compound treated Day N]>[Untreated Day 0, AVG], ([Compound treated Day N]−[Untreated Day 0, AVG])/([Untreated Day N]−[Untreated Day 0, AVG])*100, ([Compound Treated Day N]−[Untreated Day 0, AVG])/([Untreated Day 0, AVG])*100)”. GI50 is the response corresponding to the 50% of untreated control.
(§2) GI50 data are reported in Tables 4a, 4b, 4c, 4d, and 4e for compounds in Table 1. In Tables 4a, 4b, 4c, 4d, and 4e below, According to the code, A represents a GI50 value of ≤0.1 μM, B represents a GI50 value>0.1 μM and ≤1 μM, C represents an GI50 value>1 μM.

CW2 cell line = test: Growth inhibition, CyQUANT Direct Cell Proliferation Assay, CW2; type: cell-based; conditions: Homo sapiens
Method: as §1, §2

GP2D cell line = test: Growth inhibition, CyQUANT Direct Cell Proliferation Assay, GP2D; type: cell-based
Method: as §1, §2

LS180 cell line = test: Growth inhibition, CyQUANT Direct Cell Proliferation Assay, LS180; type: cell-based; conditions: Homo sapiens
Method: as §1, §2

LS174T cell line = test: Growth inhibition, CyQUANT Direct Cell Proliferation Assay, LS174T; type: cell-based; conditions: Homo sapiens
Method: as §1, §2

[1] = SK-CO-1, SKCO1, 120 to 168 hours, read-out: SKCO1 GI50
[2] = CW-2, CW2, 120 to 168 hours, read-out: CW2 GI50
[3] = GP2D, 120 to 168 hours, read-out: GP2D GI50
[4] = LS180, 120 to 168 hours, read-out: LS180 GI50
[5] = 120 to 168 hours, read-out: LS174T GI50
[6] = SK-CO-1, read-out: SKCO1 GI50 (μM)
[7] = LS180, read-out: LS180 GI50 (μM)

T1 sequence (P48729 whole entry): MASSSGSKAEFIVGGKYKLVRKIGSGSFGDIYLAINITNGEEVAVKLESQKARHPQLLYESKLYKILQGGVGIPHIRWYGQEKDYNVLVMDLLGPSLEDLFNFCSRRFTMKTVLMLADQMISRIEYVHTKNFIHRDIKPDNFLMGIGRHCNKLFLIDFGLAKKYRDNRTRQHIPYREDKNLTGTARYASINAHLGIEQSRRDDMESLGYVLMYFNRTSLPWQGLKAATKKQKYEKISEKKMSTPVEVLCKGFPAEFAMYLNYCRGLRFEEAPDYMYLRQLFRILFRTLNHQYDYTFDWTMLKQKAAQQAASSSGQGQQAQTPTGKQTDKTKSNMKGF
T1 sequence (Q96SW2 whole entry, further chain): as the sequence (Q96SW2 whole entry, species assumed) above
T1 sequence (Q16531 2-1140 partner limits assumed): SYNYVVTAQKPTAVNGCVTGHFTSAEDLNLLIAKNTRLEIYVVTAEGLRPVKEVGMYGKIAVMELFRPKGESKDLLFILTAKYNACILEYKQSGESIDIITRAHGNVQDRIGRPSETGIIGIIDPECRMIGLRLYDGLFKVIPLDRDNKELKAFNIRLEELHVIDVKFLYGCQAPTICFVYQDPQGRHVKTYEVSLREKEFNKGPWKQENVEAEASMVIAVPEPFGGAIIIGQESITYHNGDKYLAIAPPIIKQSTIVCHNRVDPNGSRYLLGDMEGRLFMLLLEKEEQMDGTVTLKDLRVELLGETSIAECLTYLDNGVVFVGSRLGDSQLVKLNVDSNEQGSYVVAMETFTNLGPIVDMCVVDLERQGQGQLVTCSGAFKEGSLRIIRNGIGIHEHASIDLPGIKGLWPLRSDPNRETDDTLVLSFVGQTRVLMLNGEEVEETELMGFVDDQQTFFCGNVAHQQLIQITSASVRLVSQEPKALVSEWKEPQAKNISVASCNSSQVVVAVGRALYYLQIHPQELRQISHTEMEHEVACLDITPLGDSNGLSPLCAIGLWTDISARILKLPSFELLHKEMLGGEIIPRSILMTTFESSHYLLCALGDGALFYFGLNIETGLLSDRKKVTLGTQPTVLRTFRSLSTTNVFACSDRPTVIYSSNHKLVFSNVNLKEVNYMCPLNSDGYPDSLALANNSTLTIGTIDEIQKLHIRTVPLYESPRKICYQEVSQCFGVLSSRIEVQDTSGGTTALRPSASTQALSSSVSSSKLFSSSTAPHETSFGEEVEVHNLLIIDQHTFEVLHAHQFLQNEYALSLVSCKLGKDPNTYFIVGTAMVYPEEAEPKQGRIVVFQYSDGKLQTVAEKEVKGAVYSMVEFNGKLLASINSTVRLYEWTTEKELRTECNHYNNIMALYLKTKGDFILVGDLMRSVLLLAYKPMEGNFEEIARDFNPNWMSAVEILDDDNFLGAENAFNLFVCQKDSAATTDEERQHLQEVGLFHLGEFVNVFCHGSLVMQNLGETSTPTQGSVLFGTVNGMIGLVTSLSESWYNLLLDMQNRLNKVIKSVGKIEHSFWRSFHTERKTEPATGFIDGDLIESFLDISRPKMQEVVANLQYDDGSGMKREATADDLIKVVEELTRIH

Row | Compound | DC50 (CK1α) | IC50 (CRBN/DDB1) | GI50 (SKCO1 cell line; [1]) | GI50 (CW2 cell line; [2]) | GI50 (GP2D cell line; [3]) | GI50 (LS180 cell line; [4]) | GI50 (LS174T cell line; [5]) | GI50 (SKCO1 cell line; [6]) | GI50 (CW2 cell line; CW-2, read-out: CW2 GI50 (μM)) | GI50 (GP2D cell line; GP2d, read-out: GP2D GI50 (μM)) | GI50 (LS180 cell line; [7]) | GI50 (LS174T cell line; read-out: LS174T GI50 (μM))
1 | O=C1CCC(N2Cc3cc(NC(=O)N4CCc5cc(C6CCC6)ccc54)ccc3C2=O)C(=O)N1 (centres unmarked) [Compound 357, 5-cyclobutyl-N-(2-(2,6-dioxopiperidin-3-yl)-1-oxoisoindolin-5-yl)indoline-1-carboxamide] | < 0.1 µM | > 1000 nM |  |  |  |  |  | < 0.1 µM | < 0.1 µM | < 0.1 µM | 0.1 to 1 µM | < 0.1 µM
2 | COC[C@@H]1Cc2c(C3CC3)cccc2N1C(=O)Nc1ccc2c(c1)CN(C1CCC(=O)NC1=O)C2=O (stereo partly drawn) [Compound 339, (2S)-4-cyclopropyl-N-(2-(2,6-dioxopiperidin-3-yl)-1-oxoisoindolin-5-yl)-2-(methoxymethyl)indoline-1-carboxamide] | < 0.1 µM | 100 to 1000 nM | 0.1 to 1 µM | 0.1 to 1 µM | 0.1 to 1 µM | > 1 µM | 0.1 to 1 µM |  |  |  |  | 
3 | CC1(C)CN(C(=O)Nc2ccc3c(c2)CN(C2CCC(=O)NC2=O)C3=O)c2ccccc21 (centres unmarked) [Compound 124, N-(2-(2,6-dioxopiperidin-3-yl)-1-oxoisoindolin-5-yl)-3,3-dimethylindoline-1-carboxamide] | < 0.1 µM | 100 to 1000 nM |  |  |  |  |  | < 0.1 µM | < 0.1 µM | < 0.1 µM | 0.1 to 1 µM | < 0.1 µM
4 | COCc1cccc2c1CCN2C(=O)Nc1ccc2c(c1)CN(C1CCC(=O)NC1=O)C2=O (centres unmarked) [Compound 341] | < 0.1 µM | 100 to 1000 nM | < 0.1 µM | 0.1 to 1 µM | < 0.1 µM | 0.1 to 1 µM | 0.1 to 1 µM |  |  |  |  | 
5 | N#Cc1ccc2c(c1)CCN2C(=O)Nc1ccc2c(c1)CN(C1CCC(=O)NC1=O)C2=O (centres unmarked) [Compound 142, 5-cyano-N-(2-(2,6-dioxopiperidin-3-yl)-1-oxoisoindolin-5-yl)indoline-1-carboxamide] | < 0.1 µM | 100 to 1000 nM |  |  |  |  |  | 0.1 to 1 µM | > 1 µM | 0.1 to 1 µM | 0.1 to 1 µM | 0.1 to 1 µM
6 | COC[C@H]1CN(C(=O)Nc2ccc3c(c2)CN(C2CCC(=O)NC2=O)C3=O)c2ccccc21 (stereo partly drawn) [Compound 338, (3R)—N-(2-(2,6-dioxopiperidin-3-yl)-1-oxoisoindolin-5-yl)-3-(methoxymethyl)indoline-1-carboxamide] | < 0.1 µM | 100 to 1000 nM | < 0.1 µM | 0.1 to 1 µM | < 0.1 µM | < 0.1 µM | < 0.1 µM |  |  |  |  | 
7 | O=C1CCC(N2Cc3cc(NC(=O)N4CCc5ccccc54)ccc3C2=O)C(=O)N1 (centres unmarked) [Compound 103, N-(2-(2,6-dioxopiperidin-3-yl)-1-oxoisoindolin-5-yl)indoline-1-carboxamide] | < 0.1 µM | 100 to 1000 nM | < 0.1 µM | 0.1 to 1 µM | < 0.1 µM | 0.1 to 1 µM | 0.1 to 1 µM |  |  |  |  | 
8 | O=C1CCC(N2Cc3cc(NC(=O)N4CCc5cc(F)ccc54)ccc3C2=O)C(=O)N1 (centres unmarked) [Compound 178, N-(2-(2,6-dioxopiperidin-3-yl)-1-oxoisoindolin-5-yl)-5-fluoroindoline-1-carboxamide] | < 0.1 µM | 100 to 1000 nM |  |  |  |  |  | 0.1 to 1 µM | 0.1 to 1 µM | 0.1 to 1 µM | 0.1 to 1 µM | 0.1 to 1 µM

Further lines, with some results ahead:

Row | DC50 (CK1α) | IC50 (CRBN/DDB1) | GI50 (SKCO1 cell line; [1]) | Compound | GI50 (CW2 cell line; [2]) | GI50 (GP2D cell line; [3]) | GI50 (LS180 cell line; [4]) | GI50 (LS174T cell line; [5]) | GI50 (SKCO1 cell line; [6]) | GI50 (CW2 cell line; CW-2, read-out: CW2 GI50 (μM)) | GI50 (GP2D cell line; GP2d, read-out: GP2D GI50 (μM)) | GI50 (LS180 cell line; [7]) | GI50 (LS174T cell line; read-out: LS174T GI50 (μM))
9 | < 0.1 µM | 100 to 1000 nM | < 0.1 µM | COC[C@@H]1Cc2ccccc2N1C(=O)Nc1ccc2c(c1)CN(C1CCC(=O)NC1=O)C2=O (stereo in doubt) [Compound 337, (S)—N-(2-((S)-2,6-dioxopiperidin-3-yl)-1-oxoisoindolin-5-yl)-2-(methoxymethyl)indoline-1-carboxamide] | 0.1 to 1 µM | 0.1 to 1 µM | 0.1 to 1 µM | 0.1 to 1 µM |  |  |  |  | 
10 | < 0.1 µM | 100 to 1000 nM | 0.1 to 1 µM | COC[C@H]1Cc2c(C3CC3)cccc2N1C(=O)Nc1ccc2c(c1)CN(C1CCC(=O)NC1=O)C2=O (stereo partly drawn) [Compound 332, (2R)-4-cyclopropyl-N-(2-(2,6-dioxopiperidin-3-yl)-1-oxoisoindolin-5-yl)-2-(methoxymethyl)indoline-1-carboxamide] | < 0.1 µM | 0.1 to 1 µM | 0.1 to 1 µM | 0.1 to 1 µM |  |  |  |  | 
11 | < 0.1 µM | 100 to 1000 nM | < 0.1 µM | O=C1CCC(N2Cc3cc(NC(=O)N4CCc5c(C6CC6)cccc54)ccc3C2=O)C(=O)N1 (centres unmarked) [Compound 164, 4-cyclopropyl-N-(2-(2,6-dioxopiperidin-3-yl)-1-oxoisoindolin-5-yl)indoline-1-carboxamide] | < 0.1 µM | < 0.1 µM | 0.1 to 1 µM | < 0.1 µM |  |  |  |  | 
12 | < 0.1 µM | 100 to 1000 nM | < 0.1 µM | O=C1CCC(N2Cc3cc(NC(=O)N4CC5(CCOCC5)c5ccccc54)ccc3C2=O)C(=O)N1 (centres unmarked) [Compound 189] | < 0.1 µM | < 0.1 µM | < 0.1 µM | < 0.1 µM |  |  |  |  | 
13 | < 0.1 µM | > 1000 nM | < 0.1 µM | O=C1CCC(N2Cc3cc(NC(=O)N4CCc5c(F)cccc54)ccc3C2=O)C(=O)N1 (centres unmarked) [Compound 201, N-(2-(2,6-dioxopiperidin-3-yl)-1-oxoisoindolin-5-yl)-4-fluoroindoline-1-carboxamide] | < 0.1 µM | < 0.1 µM | 0.1 to 1 µM | < 0.1 µM |  |  |  |  | 
14 | < 0.1 µM | < 100 nM | 0.1 to 1 µM | N#Cc1cccc2c1CCN2C(=O)Nc1ccc2c(c1)CN(C1CCC(=O)NC1=O)C2=O (centres unmarked) [Compound 148, 4-cyano-N-(2-(2,6-dioxopiperidin-3-yl)-1-oxoisoindolin-5-yl)indoline-1-carboxamide] | 0.1 to 1 µM | 0.1 to 1 µM | 0.1 to 1 µM | 0.1 to 1 µM |  |  |  |  | 
